In patent US12377049B2, “Fulvestrant pharmaceutical composition, preparation method therefor, and application thereof” (SHANGHAI BOCIMED PHARMACEUTICAL CO., LTD., priority 2019, dated 2025):

Columns and labels:
[1] = Stability test on the fulvestrant suspensions of Examples 1-3: related substances (EP10.0 method); assay type: physicochemical; details: starting material
Description: The fulvestrant suspensions prepared in Examples 1 and 2 were stored in a refrigerator at 4° C. for 14 days or 10 days, and tested for related substances.
The fulvestrant suspension prepared in Example 3 was placed at −20° C., 4° C., 25° C., 40° C. or 60° C., and tested for related substances, the morphology, particle size distribution and crystalline form changes of the fulvestrant solid particles. The test for the related substances was performed according to the EP10.0 method.

[2] = background statement; cited from earlier work
[3] = background statement; cited from earlier work; remark: listed apart in the source

C[C@]12CC[C@@H]3c4ccc(O)cc4C[C@@H](CCCCCCCCC[S+]([O-])CCCC(F)(F)C(F)(F)F)[C@H]3[C@@H]1CC[C@@H]2O (some centres unmarked) [Fulvestrant, 7-(9-(4,4,5,5,5-pentafluoropentylsulfinyl)nonyl)estra-1,3,5(10)-triene-3,17-diol]
Main peak, peak area [1]: 99.84% | RRT 0.51, peak area [1]: 0.01% | RRT 0.88, peak area [1]: 0.05% | RRT 1.19, peak area [1]: 0.04% | RRT 2.92, peak area [1]: 0.03% | Total impurities, peak area [1]: 0.05% | water solubility [2]: very low | oral bioavailability [3]: low
